{"source": "ChEMBL document CHEMBL4808217", "about": "“Design, Synthesis, and Characterization of 4-Aminoquinazolines as Potent Inhibitors of the G Protein-Coupled Receptor Kinase 6 (GRK6) for the Treatment of Multiple Myeloma” (J Med Chem, 2021)", "key": {"[1]": {"target": "T1, G protein-coupled receptor kinase 6 (Homo sapiens, UniProt P43250)", "T1 sequence (P43250 whole entry)": "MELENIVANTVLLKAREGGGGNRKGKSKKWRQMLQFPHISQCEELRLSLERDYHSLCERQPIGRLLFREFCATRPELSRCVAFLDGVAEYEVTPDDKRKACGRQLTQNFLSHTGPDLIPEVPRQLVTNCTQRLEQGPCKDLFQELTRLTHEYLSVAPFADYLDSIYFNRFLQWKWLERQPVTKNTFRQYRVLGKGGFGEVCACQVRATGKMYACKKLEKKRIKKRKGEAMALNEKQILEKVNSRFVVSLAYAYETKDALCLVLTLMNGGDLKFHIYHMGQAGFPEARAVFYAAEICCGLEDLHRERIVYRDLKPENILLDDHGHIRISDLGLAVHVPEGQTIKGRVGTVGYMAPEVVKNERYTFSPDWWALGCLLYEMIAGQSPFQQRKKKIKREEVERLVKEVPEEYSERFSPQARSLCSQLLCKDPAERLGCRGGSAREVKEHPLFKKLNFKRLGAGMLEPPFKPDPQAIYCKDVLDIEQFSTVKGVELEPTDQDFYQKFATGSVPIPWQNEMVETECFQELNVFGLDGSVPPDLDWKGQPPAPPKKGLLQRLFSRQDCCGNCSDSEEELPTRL", "experiment": "Inhibition of recombinant full-length human GRK6 using casein as substrate measured after 80 mins in presence of [gamma33P]ATP by radiometric scintillation counting method"}, "[2]": {"target": "T2, Aurora kinase A (Homo sapiens, UniProt O14965)", "T2 sequence (O14965 whole entry)": "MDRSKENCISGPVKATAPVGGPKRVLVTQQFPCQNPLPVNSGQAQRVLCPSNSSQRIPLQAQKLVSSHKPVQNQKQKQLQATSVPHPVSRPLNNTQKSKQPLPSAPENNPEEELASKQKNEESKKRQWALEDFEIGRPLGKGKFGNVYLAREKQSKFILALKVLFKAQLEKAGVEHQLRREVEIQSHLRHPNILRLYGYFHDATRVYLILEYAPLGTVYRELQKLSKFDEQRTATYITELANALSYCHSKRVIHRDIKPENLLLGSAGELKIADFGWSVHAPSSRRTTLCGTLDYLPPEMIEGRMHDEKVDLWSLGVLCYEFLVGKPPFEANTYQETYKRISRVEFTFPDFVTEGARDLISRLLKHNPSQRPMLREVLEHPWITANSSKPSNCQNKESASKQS", "experiment": "Inhibition of recombinant full length human Aurora A using LRRASLG as substrate incubated for 40 mins in presence of [gamma-33ATP] by radiometric scintillation counting method"}, "[3]": {"target": "Focal adhesion kinase 1 (Homo sapiens, UniProt Q05397)", "sequence (Q05397 whole entry, the tested form may be a part)": "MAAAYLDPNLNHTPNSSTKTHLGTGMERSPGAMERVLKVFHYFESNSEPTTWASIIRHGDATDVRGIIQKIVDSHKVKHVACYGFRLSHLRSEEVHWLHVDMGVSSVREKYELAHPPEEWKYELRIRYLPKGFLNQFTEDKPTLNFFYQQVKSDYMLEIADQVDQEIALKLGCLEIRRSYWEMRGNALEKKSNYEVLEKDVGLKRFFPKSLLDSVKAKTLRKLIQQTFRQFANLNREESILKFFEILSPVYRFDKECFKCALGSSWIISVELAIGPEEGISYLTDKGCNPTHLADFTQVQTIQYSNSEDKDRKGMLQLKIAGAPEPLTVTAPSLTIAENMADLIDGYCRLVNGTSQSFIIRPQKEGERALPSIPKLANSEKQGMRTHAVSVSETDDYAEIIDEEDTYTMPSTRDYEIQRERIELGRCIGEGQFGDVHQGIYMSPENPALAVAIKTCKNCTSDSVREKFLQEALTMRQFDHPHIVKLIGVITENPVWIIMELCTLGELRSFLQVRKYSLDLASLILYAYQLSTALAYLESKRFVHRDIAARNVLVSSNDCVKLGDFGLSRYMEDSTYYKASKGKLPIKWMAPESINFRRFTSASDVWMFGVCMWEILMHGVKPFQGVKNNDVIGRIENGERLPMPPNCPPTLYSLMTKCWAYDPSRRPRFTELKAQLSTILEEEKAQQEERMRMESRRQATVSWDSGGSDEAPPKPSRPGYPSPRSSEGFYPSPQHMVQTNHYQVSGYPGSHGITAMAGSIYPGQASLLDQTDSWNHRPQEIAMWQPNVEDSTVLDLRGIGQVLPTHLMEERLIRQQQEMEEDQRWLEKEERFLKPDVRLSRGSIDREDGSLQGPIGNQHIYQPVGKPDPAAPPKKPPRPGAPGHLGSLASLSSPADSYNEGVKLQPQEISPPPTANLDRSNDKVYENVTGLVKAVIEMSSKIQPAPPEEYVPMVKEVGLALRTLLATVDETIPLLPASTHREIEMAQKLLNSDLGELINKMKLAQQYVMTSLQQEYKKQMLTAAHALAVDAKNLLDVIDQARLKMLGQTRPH", "experiment": "Inhibition of recombinant human FAK (411 to 686 residues) using EEEEYEEEEEEYY as substrate incubated for 40 mins in presence of [gamma-33ATP] by scintillation counting based radiometry assay"}, "[4]": {"target": "Tyrosine-protein kinase JAK2 (Homo sapiens, UniProt O60674)", "sequence (O60674 whole entry)": "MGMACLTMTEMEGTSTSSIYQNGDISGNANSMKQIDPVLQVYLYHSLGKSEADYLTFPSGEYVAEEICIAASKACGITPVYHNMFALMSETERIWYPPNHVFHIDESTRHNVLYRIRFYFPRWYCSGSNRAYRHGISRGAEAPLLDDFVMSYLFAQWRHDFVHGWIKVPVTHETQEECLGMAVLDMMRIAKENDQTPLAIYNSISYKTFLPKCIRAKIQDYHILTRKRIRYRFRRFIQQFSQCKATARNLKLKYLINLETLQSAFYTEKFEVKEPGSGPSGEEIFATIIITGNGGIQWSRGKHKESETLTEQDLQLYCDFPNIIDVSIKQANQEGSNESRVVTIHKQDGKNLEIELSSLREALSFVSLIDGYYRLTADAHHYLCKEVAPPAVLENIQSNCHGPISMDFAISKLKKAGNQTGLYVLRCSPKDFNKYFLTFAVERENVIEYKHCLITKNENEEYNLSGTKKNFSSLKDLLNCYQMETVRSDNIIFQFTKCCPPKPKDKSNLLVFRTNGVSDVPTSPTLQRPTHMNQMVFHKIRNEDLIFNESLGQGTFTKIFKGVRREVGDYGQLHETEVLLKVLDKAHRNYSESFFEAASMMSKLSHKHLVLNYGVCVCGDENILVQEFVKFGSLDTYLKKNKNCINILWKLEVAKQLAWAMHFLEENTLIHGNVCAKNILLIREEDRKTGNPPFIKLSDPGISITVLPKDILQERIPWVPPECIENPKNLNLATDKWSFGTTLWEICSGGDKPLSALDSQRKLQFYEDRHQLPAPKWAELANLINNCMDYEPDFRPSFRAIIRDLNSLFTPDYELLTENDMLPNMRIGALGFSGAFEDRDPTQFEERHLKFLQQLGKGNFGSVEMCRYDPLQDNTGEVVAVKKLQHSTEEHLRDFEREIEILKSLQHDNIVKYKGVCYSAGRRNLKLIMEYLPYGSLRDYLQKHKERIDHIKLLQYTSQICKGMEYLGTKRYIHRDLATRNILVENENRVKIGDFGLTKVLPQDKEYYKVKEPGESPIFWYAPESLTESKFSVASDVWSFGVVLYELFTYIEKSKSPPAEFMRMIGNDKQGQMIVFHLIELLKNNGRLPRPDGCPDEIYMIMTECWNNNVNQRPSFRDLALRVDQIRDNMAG", "experiment": "Inhibition of recombinant human JAK2 (808 to end residues) using KTFCGTPEYLAPE as substrate incubated for 40 mins in presence of [gamma33P]ATP by radiometric scintillation counting analysis"}, "[5]": {"target": "G protein-coupled receptor kinase 4 (Homo sapiens, UniProt P32298)", "sequence (P32298 whole entry)": "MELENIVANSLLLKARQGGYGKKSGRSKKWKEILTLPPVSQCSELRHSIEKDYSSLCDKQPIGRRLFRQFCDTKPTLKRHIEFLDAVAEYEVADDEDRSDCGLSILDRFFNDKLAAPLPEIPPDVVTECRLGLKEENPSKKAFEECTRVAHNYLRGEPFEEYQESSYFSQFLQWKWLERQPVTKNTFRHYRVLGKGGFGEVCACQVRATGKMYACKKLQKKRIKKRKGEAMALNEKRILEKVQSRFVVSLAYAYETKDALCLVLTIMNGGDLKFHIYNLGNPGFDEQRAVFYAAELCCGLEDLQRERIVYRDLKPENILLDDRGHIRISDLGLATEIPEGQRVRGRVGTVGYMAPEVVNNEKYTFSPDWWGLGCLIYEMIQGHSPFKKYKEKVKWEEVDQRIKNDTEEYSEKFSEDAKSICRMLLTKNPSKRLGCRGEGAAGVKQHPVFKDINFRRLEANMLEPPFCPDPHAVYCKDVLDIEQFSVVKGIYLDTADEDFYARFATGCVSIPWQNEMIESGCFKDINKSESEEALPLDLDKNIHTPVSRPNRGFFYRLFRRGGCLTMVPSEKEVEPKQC", "experiment": "Inhibition of human GRK4 using casein as substrate in presence of [gamma33P]ATP by radiometric hotspot kinase assay"}, "[6]": {"target": "T1, G protein-coupled receptor kinase 6", "experiment": "Binding affinity to FLAG-tagged GRK6 in human KMS11 cells incubated for […] by ITDR assay", "format": "cell-based, KMS-11"}}}
{"smiles": "CCc1cc(Nc2nc(NCc3ccc(Cl)cc3OC)nc3cccc(OC)c23)n[nH]1", "values": [{"measurement": "IC50", "setting": "[1]", "value": 8, "unit": "nM"}, {"measurement": "IC50", "setting": "[2]", "value": 8900, "unit": "nM"}, {"measurement": "IC50", "setting": "[3]", "value": 220, "unit": "nM"}, {"measurement": "IC50", "setting": "[4]", "value": "> 10000", "unit": "nM"}, {"measurement": "IC50", "setting": "[5]", "value": 22, "unit": "nM"}, {"measurement": "IC50", "setting": "[6]", "value": 30, "unit": "nM"}]}
